Experiments:
Assay type in all cases: in vivo
[1] = tested on: barnyardgrass (Echinochloa crus-galli, ECHCG); assay: Pre-emerge test, greenhouse herbicide activity screening; conditions: pre-emerge, rated 14 days after application, 0 = no damage, 100 = complete death
In short: (§1)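 Visual ratings on a 0-100 scale (0 no damage, 100 all plants dead) were taken at 14 days after treatment. Rates of 15-1000 g ai/ha in acetone, 187 l/ha, were sprayed onto soil one day after planting (pre-emerge) or onto 2-3 leaf plants with 0.25% v/v surfactant (post-emerge).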

[2] = tested on: green foxtail (Setaria viridis, SETVI); assay: as above; conditions: pre-emerge, rated 14 days after application, 0 = no damage, 100 = complete death
In short: as §1

[3] = tested on: ivyleaf morningglory (Ipomoea hederacea, IPOHE); assay: as above; conditions: pre-emerge, rated 14 days after application, 0 = no damage, 100 = complete death
In short: as §1

[4] = tested on: johnsongrass (Sorghum halepense, SORHA); assay: as above; conditions: pre-emerge, rated 14 days after application, 0 = no damage, 100 = complete death
In short: as §1

[5] = tested on: lambsquarters (Chenopodium album, CHEAL); assay: as above; conditions: pre-emerge, rated 14 days after application, 0 = no damage, 100 = complete death
In short: as §1

[6] = tested on: large crabgrass (Digitaria sanguinalis, DIGSA); assay: as above; conditions: pre-emerge, rated 14 days after application, 0 = no damage, 100 = complete death
In short: as §1

[7] = tested on: sicklepod (Cassia obtusifolia, CASOB); assay: as above; conditions: pre-emerge, rated 14 days after application, 0 = no damage, 100 = complete death
In short: as §1

[8] = tested on: velvetleaf (Abutilon theophrasti, ABUTH); assay: as above; conditions: pre-emerge, rated 14 days after application, 0 = no damage, 100 = complete death
In short: as §1

[9] = tested on: green foxtail (Setaria viridis, SETVI); assay: Post-emerge test, greenhouse herbicide activity screening; conditions: Setaria viridis, post-emergence, 336 h, phytotoxicity rating 0-100 (0 no damage, 100 complete death), 14 days after application, read-out: Post-emerge Herbicidal Activity SETVI
In short: (§2)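 Compounds in acetone were track-sprayed at 187 l/ha, 15–1000 g ai/ha, onto sandy loam pots. Pre-emerge seeds were sown one day before spraying, with surface watering afterwards. Post-emerge plants were at the 2–3 leaf stage and sprayed with 0.25% v/v non-ionic surfactant. Injury was rated 0–100 at 14 days.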

[10] = tested on: johnsongrass (Sorghum halepense, SORHA); assay: as above; conditions: Sorghum halepense, post-emergence, 336 h, phytotoxicity rating 0-100 (0 no damage, 100 complete death), 14 days after application, read-out: Post-emerge Herbicidal Activity SORHA
In short: as §2

[11] = tested on: large crabgrass (Digitaria sanguinalis, DIGSA); assay: as above; conditions: Digitaria sanguinalis, post-emergence, 336 h, phytotoxicity rating 0-100 (0 no damage, 100 complete death), 14 days after application, read-out: Post-emerge Herbicidal Activity DIGSA
In short: as §2

[12] = tested on: redroot pigweed (Amaranthus retroflexus, AMARE); assay: as above; conditions: Amaranthus retroflexus, post-emergence, 336 h, phytotoxicity rating 0-100 (0 no damage, 100 complete death), 14 days after application, read-out: Post-emerge Herbicidal Activity AMARE
In short: as §2

[13] = tested on: sicklepod (Cassia obtusifolia, CASOB); assay: as above; conditions: Senna obtusifolia, post-emergence, 336 h, phytotoxicity rating 0-100 (0 no damage, 100 complete death), 14 days after application, read-out: Post-emerge Herbicidal Activity CASOB
In short: as §2

[14] = tested on: velvetleaf (Abutilon theophrasti, ABUTH); assay: as above; conditions: Abutilon theophrasti, post-emergence, 336 h, phytotoxicity rating 0-100 (0 no damage, 100 complete death), 14 days after application, read-out: Post-emerge Herbicidal Activity ABUTH
In short: as §2

Cn1c(C(F)(F)F)cc(=O)n(-c2c(F)cc(Cl)c(OC(F)F)c2N)c1=O [Compound 1-38, 3-(2-amino-4-chloro-3-difluoromethoxy-6-fluorophenyl)-1-methyl-6-trifluoromethyl-2,4(1H, 3H)-pyrimidinedione]
Pre-emerge Herbicidal Activity ECHCG (phytotoxicity rating, scale 0-100) ([1]; 63 g ai/ha): 95
Pre-emerge Herbicidal Activity ECHCG (phytotoxicity rating, scale 0-100) ([1]; 250 g ai/ha): 100
Pre-emerge Herbicidal Activity SETVI (phytotoxicity rating, scale 0-100) ([2]; 63 g ai/ha): 100
Pre-emerge Herbicidal Activity SETVI (phytotoxicity rating, scale 0-100) ([2]; 250 g ai/ha): 100
Pre-emerge Herbicidal Activity IPOHE (phytotoxicity rating, scale 0-100) ([3]; 63 g ai/ha): 100
Pre-emerge Herbicidal Activity IPOHE (phytotoxicity rating, scale 0-100) ([3]; 250 g ai/ha): 100
Pre-emerge Herbicidal Activity SORHA (phytotoxicity rating, scale 0-100) ([4]; 63 g ai/ha): 90
Pre-emerge Herbicidal Activity SORHA (phytotoxicity rating, scale 0-100) ([4]; 250 g ai/ha): 100
Pre-emerge Herbicidal Activity CHEAL (phytotoxicity rating, scale 0-100) ([5]; 63 g ai/ha): 100
Pre-emerge Herbicidal Activity CHEAL (phytotoxicity rating, scale 0-100) ([5]; 250 g ai/ha): 100
Pre-emerge Herbicidal Activity DIGSA (phytotoxicity rating, scale 0-100) ([6]; 63 g ai/ha): 100
Pre-emerge Herbicidal Activity DIGSA (phytotoxicity rating, scale 0-100) ([6]; 250 g ai/ha): 100
Pre-emerge Herbicidal Activity CASOB (phytotoxicity rating, scale 0-100) ([7]; 63 g ai/ha): 100
Pre-emerge Herbicidal Activity CASOB (phytotoxicity rating, scale 0-100) ([7]; 250 g ai/ha): 100
Pre-emerge Herbicidal Activity ABUTH (phytotoxicity rating, scale 0-100) ([8]; 63 g ai/ha): 100
Pre-emerge Herbicidal Activity ABUTH (phytotoxicity rating, scale 0-100) ([8]; 250 g ai/ha): 100
pest or weed control at 63 g/ha ([9]; 63 g ai/ha): 10%
pest or weed control at 250 g/ha ([9]; 250 g ai/ha): 80%
pest or weed control at 63 g/ha ([10]; 63 g ai/ha): 0%
pest or weed control at 250 g/ha ([10]; 250 g ai/ha): 80%
pest or weed control at 63 g/ha ([11]; 63 g ai/ha): 10%
pest or weed control at 250 g/ha ([11]; 250 g ai/ha): 80%
pest or weed control at 63 g/ha ([12]; 63 g ai/ha): 80%
pest or weed control at 250 g/ha ([12]; 250 g ai/ha): 100%
pest or weed control at 63 g/ha ([13]; 63 g ai/ha): 50%
pest or weed control at 250 g/ha ([13]; 250 g ai/ha): 90%
pest or weed control at 63 g/ha ([14]; 63 g ai/ha): 100%
pest or weed control at 250 g/ha ([14]; 250 g ai/ha): 100%

From patent publication US6355799B1, “Substituted benzene compounds, process for their preparation, and herbicidal and defoliant compositions containing them” (ISK Americas Incorporated, priority 1997, dated 2002)
